{"source": "paper PMC6226181", "about": "(PLoS ONE, 2018)", "key": {"anthrax lethal factor [1]": {"biological_target": "T1, anthrax lethal factor (Bacillus anthracis, UniProt P15917)", "T1 sequence (P15917 34-809 limits assumed)": "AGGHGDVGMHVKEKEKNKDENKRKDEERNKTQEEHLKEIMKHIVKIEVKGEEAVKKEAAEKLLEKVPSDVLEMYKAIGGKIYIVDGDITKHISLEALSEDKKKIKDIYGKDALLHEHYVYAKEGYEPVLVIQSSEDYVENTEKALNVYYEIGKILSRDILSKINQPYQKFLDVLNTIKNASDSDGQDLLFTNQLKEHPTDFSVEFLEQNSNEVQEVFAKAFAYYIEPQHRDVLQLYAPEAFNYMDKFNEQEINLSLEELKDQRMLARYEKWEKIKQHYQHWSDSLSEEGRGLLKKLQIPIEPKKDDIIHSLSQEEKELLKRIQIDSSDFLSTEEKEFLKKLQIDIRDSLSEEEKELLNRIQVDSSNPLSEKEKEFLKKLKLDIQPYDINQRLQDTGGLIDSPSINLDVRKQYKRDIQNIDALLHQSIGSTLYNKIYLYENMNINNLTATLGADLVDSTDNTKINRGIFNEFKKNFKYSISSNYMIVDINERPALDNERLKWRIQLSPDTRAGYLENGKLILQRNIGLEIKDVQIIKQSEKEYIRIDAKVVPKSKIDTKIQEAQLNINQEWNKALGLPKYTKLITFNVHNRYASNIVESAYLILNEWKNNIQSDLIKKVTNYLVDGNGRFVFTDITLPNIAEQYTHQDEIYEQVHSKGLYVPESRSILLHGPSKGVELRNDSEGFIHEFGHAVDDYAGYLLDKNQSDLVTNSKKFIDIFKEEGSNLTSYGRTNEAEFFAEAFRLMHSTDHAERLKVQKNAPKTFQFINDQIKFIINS", "details": "cited from earlier work"}, "anthrax lethal factor [2]": {"biological_target": "T1, anthrax lethal factor", "format": "biochemical", "details": "5 hours at 37°C"}, "anthrax lethal factor [3]": {"biological_target": "T1, anthrax lethal factor", "format": "biochemical", "details": "5 hours at 37°C", "remark": "listed apart in the source"}}, "note": "Non-standard residues stand in square brackets, D forms with d. Residues, ends and D or L forms follow the SMILES beside them. *: point of attachment. AFC = O=c1cc(C(F)(F)F)c2ccc(N*)cc2o1; AMC = Cc1cc(=O)oc2cc(N*)ccc12", "data": [{"compound": "7-methoxy-coumarin-4-acetyl (Mca)-Arg-Arg-Lys-Lys-Val-Tyr-Pro-Try-Pro-Met-Glu -2,4-dinitrophenol (DNP) -Thr-Ile-Ala", "values": [{"measurement": "Cleavage by LF", "setting": "anthrax lethal factor [1]", "result": "cleaved by LF after the first proline"}]}, {"compound": "CC(=O)N[C@@H](CCCNC(=N)N)C(=O)N[C@@H](CCCNC(=N)N)C(=O)N[C@@H](CCCCN)C(=O)N[C@@H](CCCCN)C(=O)N[C@H](C(=O)N[C@@H](Cc1ccc(O)cc1)C(=O)N1CCC[C@H]1C(=O)Nc1ccc2c(C)cc(=O)oc2c1)C(C)C", "note": "[LBL 10079] (Ac-RRKKVYP-{AMC})", "values": [{"measurement": "Cleavage by LF in 1:10 diluted bovine plasma (increase in fluorescence)", "setting": "anthrax lethal factor [2]", "result": "does not correlate with the amount of LF"}]}, {"compound": "CC(=O)N[C@H](CCCNC(=N)N)C(=O)N[C@H](CCCNC(=N)N)C(=O)N[C@H](CCCCN)C(=O)N[C@H](CCCCN)C(=O)N[C@H](C(=O)N[C@@H](Cc1ccc(O)cc1)C(=O)N1CCC[C@H]1C(=O)Nc1ccc2c(C)cc(=O)oc2c1)C(C)C", "note": "[LBL 10097] (Ac-[dR][dR][dK][dK]VYP-{AMC})", "values": [{"measurement": "Cleavage by LF in 1:10 diluted bovine plasma (increase in fluorescence)", "setting": "anthrax lethal factor [2]", "result": "dependent upon the presence and amount of LF"}]}, {"compound": "CC(=O)N[C@H](CCCCN)C(=O)N[C@H](CCCCN)C(=O)N[C@H](C(=O)N[C@@H](Cc1ccc(O)cc1)C(=O)N1CCC[C@H]1C(=O)Nc1ccc2c(C)cc(=O)oc2c1)C(C)C", "note": "[LBL 10100] (Ac-[dK][dK]VYP-{AMC})", "values": [{"measurement": "Cleavage by LF in assay buffer (increase in fluorescence)", "setting": "anthrax lethal factor [3]", "result": "eliminates hydrolysis at the concentrations of LF used"}]}, {"compound": "CC(=O)N[C@@H](CCCNC(=N)N)C(=O)N[C@H](CCCNC(=N)N)C(=O)N[C@H](CCCCN)C(=O)N[C@H](CCCCN)C(=O)N[C@H](C(=O)N[C@@H](Cc1ccc(O)cc1)C(=O)N1CCC[C@H]1C(=O)Nc1ccc2c(C(F)(F)F)cc(=O)oc2c1)C(C)C", "note": "[LBL 10108] (Ac-R[dR][dK][dK]VYP-{AFC})", "values": [{"measurement": "Non-specific cleavage in plasma in the absence of LF", "setting": "plasma proteases", "result": "neither peptide is cleaved in plasma in the absence of LF"}]}]}
